The source of these data is patent US10782295B2, “Cysteine-reactive ligand discovery in proteomes” (THE SCRIPPS RESEARCH INSTITUTE, priority 2013, dated 2020).

Assay [1] has as its target T1, WT-ZAK (Homo sapiens, UniProt Q9NYL2).
T1 construct: Full-length cDNA encoding human ZAK-13 (BC001401); expressed in transfected cells
Description: gel-based ABPP with IA-rhodamine probe. In kind it is binding. As to conditions: 10, 50 and 100 μM, 30 min; HEK-293T lysate. The source says:
(§1) The gel signals for IA-labeling of WT-ZAK were blocked by pretreatment with HNE over a concentration range that closely matched the HNE-sensitivity profile observed for C22 in competitive isoTOP-ABPP experiments (FIG. 4b, compare to FIG. 3a). […] Considering further that C22 is predicted to reside adjacent to the ATP-binding loop of ZAK, we postulated that the HNE-induced loss of kinase activity might be due to blockade of ATP-binding.
Full-length cDNA encoding human ZAK-13 (BC001401) in pOTB7 was purchased from Open BioSystems and subcloned into pFLAG-CMV-6c (Sigma-Aldrich). ZAK-C22A and ZAK-K45M mutants were generated by QuikChange site-directed mutagenesis using the primer 5′-[…]-3′ (SEQ ID NO:1) and 5′-[…]-3′ (SEQ ID NO:2) and their complements. Wild-type and mutant ZAK were cloned into a modified pCLNCX retroviral vector. Retrovirus was prepared by taking 3.0 μg of each of pCLNCX and pCL-Ampho vectors and […], of FuGENE IID reagent (Roche) to transfect 60% confluent HEK-293T cells. […]
FLAG-tagged wild-type and C22A mutant ZAK were immunoprecipitated from HEK-293T cells ([…]). […] Gel samples were separated by SDS-PAGE (50 μL of sample/lane) and visualized in-gel using a Hitachi FMBio II flatbed laser-induced fluorescence scanner (MiraiBio, Alameda, Calif.). […]

The target in the next assay is T2, C22A-ZAK (Homo sapiens, UniProt Q9NYL2, C22A).
T2 construct: Full-length cDNA encoding human ZAK-13 (BC001401); expressed in transfected cells
Kind of assay: ZAK in vitro kinase activity assay (MBP substrate). In kind it is biochemical. As to conditions: 10 or 100 μM HNE; immunoprecipitated enzyme.
Source text: as §1
(§2) The kinase activity assay protocol was adapted from Yu et al^5. Kinase assay buffers, Myeilin Basic Protein (MBP) substrate, and ATP stock solution were purchased from SignalChem. Radio-labeled [^33P]-ATP was purchased from PerkinElmer. 10 mg of soluble lysate of HEK-293T cells transfected with each of wild-type, C22A and K45M of ZAK were immunoprecipitated and then eluted with 2×300 μL FLAG-peptide buffer. […] The spotted P81 strips were air dried and then washed with 10 mL of 1% phosphoric acid for 3×10 min ZAK activity was measured by counting the radioactivity on the P81 paper in the presence of scintillation fluid in a scintillation counter after subtracting the value obtained from the corresponding no substrate control, and was normalized to that of ZAK-WT without HNE treatment. […]

In assay [2] the target is T1, WT-ZAK. Description: ZAK in vitro kinase activity assay (MBP substrate). The format is biochemical. As to conditions: 10 or 100 μM HNE; immunoprecipitated enzyme.
Source text: as §1, §2

Take `CCCCCC(O)/C=C/C=O` (stereo not drawn) [4-HNE, 4-Hydroxynonenal]: on WT-ZAK [1], the “gel signals for IA-labeling of WT-ZAK after pretreatment” value is “blocked”. Moreover, the “ZAK catalytic activity, C22A-ZAK residual activity” value at C22A-ZAK is recorded as “insensitive”. For the same compound, the “ZAK catalytic activity, WT-ZAK” value at WT-ZAK [2] is “inhibited”.
